# Tests used:
# Test in all cases: relative viability (nuclei count vs DMSO), 5 days (fraction); higher = more cells survive
# [1] = compound: CC1=CC=C(C=C1)C(=O)CN2C3=C(CCCC3)SC2=N [Pifithrin_alpha] + Cc1nc(Nc2ncc(C(=O)Nc3c(C)cccc3Cl)s2)cc(N2CCN(CCO)CC2)n1 [Dasatinib] (partner 0.075 µM)
# Summary of the method: (§1)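 Dosing by pin tool came one day after lung cancer cell lines were seeded in 1536-well plates, using either one drug or a fixed anchor-drug dose plus five library-drug doses (not always all listed) in √10 steps. After 5 days, nuclei were counted on 4× images. Relative viability is treated-well nuclei count divided by vehicle-well nuclei count, and values are medians of duplicate plates.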
# [2] = compound: CC1=CC=C(C=C1)C(=O)CN2C3=C(CCCC3)SC2=N [Pifithrin_alpha] + NC(=O)Nc1cc(-c2cccc(F)c2)sc1C(=O)N[C@H]1CCCNC1 [AZD7762] (partner 0.2 µM)
# Summary of the method: as §1
# Axitinib + AZD7762 = compound: CNC(=O)c1ccccc1Sc1ccc2c(/C=C/c3ccccn3)n[nH]c2c1 [Axitinib] + NC(=O)Nc1cc(-c2cccc(F)c2)sc1C(=O)N[C@H]1CCCNC1 [AZD7762] (partner 0.2 µM)
# Summary of the method: as §1
# Bemcentinib + Olaparib = compound: Nc1nc(Nc2ccc3c(c2)CC[C@@H](N2CCCC2)CC3)nn1-c1cc2c(nn1)-c1ccccc1CCC2 [Bemcentinib] + O=C(c1cc(Cc2n[nH]c(=O)c3ccccc23)ccc1F)N1CCN(C(=O)C2CC2)CC1 [Olaparib] (partner 8 µM)
# Summary of the method: as §1
Cell Line,relative viability ([1]; first compound 3.162 µM),relative viability ([1]; first compound 10 µM),relative viability ([1]; first compound 31.62 µM),relative viability ([1]; first compound 100 µM),relative viability ([2]; first compound 1 µM),relative viability ([2]; first compound 3.162 µM),relative viability ([2]; first compound 10 µM),relative viability ([2]; first compound 31.62 µM),relative viability ([2]; first compound 100 µM),relative viability (Axitinib + AZD7762; first compound 0.005 µM),relative viability (Axitinib + AZD7762; first compound 0.01581 µM),relative viability (Axitinib + AZD7762; first compound 0.05 µM),relative viability (Axitinib + AZD7762; first compound 0.1581 µM),relative viability (Axitinib + AZD7762; first compound 0.5 µM),relative viability (Bemcentinib + Olaparib; first compound 0.04 µM),relative viability (Bemcentinib + Olaparib; first compound 0.1265 µM),relative viability (Bemcentinib + Olaparib; first compound 0.4 µM),relative viability (Bemcentinib + Olaparib; first compound 1.265 µM),relative viability (Bemcentinib + Olaparib; first compound 4 µM),relative viability ([1]; first compound 1 µM)
NCI-H1793,0.466,0.4,0.403,0.393,0.605,0.402,0.441,0.323,0.255,0.514,0.394,0.565,0.304,0.486,0.852,1.16,0.987,0.961,0.842,
HCC-78,0.354,0.336,0.417,0.455,,0.509,0.566,0.54,0.526,0.787,0.58,0.857,0.708,0.498,0.919,0.794,0.971,0.808,0.833,0.259
NCI-H322M,0.258,0.245,0.245,0.226,0.413,0.462,0.48,0.498,0.487,0.564,0.525,0.579,0.548,0.612,0.796,0.84,0.844,0.854,0.839,0.25
COR-L23,0.458,0.386,,0.38,,,,,,,,,,,0.38,0.314,0.371,0.328,0.344,0.567
201T,0.337,0.431,0.392,0.399,0.669,0.773,0.781,0.461,0.627,0.626,0.56,0.593,0.539,0.59,0.872,0.874,0.934,0.897,0.818,0.47
NCI-H2347,0.309,0.301,0.333,0.291,0.84,0.733,0.738,0.756,0.86,0.828,0.763,0.792,0.723,0.873,0.58,0.587,0.553,0.659,0.611,0.273
LCLC-97TM1,0.846,0.984,0.428,0.954,0.222,0.231,0.382,,0.239,0.22,0.327,0.218,0.281,0.374,0.411,0.455,0.476,0.289,0.382,1.08
NCI-H2126,0.48,0.431,0.451,0.391,0.79,1.05,0.949,0.799,0.915,0.936,0.997,0.996,0.97,1.01,0.999,0.931,0.948,1.01,0.916,0.392
NCI-H1944,0.214,0.217,0.173,0.196,0.514,0.574,0.563,0.529,0.468,0.586,0.441,0.506,0.447,0.541,0.413,0.414,0.418,0.436,0.424,0.217
HCC-15,0.61,0.485,0.275,0.264,1.28,1.27,1.03,1.1,1.3,1.36,1.13,1.35,1.14,1.18,0.7,0.712,0.771,0.655,0.748,0.634
NCI-H2405,0.197,0.205,0.188,0.196,,0.654,0.651,0.579,0.615,0.73,0.808,1.01,0.684,0.856,0.83,0.938,0.959,0.975,0.91,0.156
COR-L 105,0.292,0.323,0.243,0.323,,,,,,,,,,,0.635,0.762,0.752,0.737,0.64,0.315
ABC-1,0.439,0.435,0.398,0.453,,0.977,0.8,0.726,0.679,,0.725,0.896,0.822,0.461,0.627,0.843,0.855,0.774,0.792,0.413
HCC-366,0.506,0.426,,0.537,0.23,0.183,0.183,,0.174,0.307,0.206,0.377,0.337,0.405,0.421,0.35,0.415,0.387,0.353,0.501
NCI-H1623,0.603,0.523,0.56,0.448,,,,,,,,,,,,,,,,0.463
NCI-H2342,0.316,0.317,0.31,0.31,0.421,0.541,0.51,0.525,0.492,0.554,0.437,0.688,0.513,0.429,0.43,0.441,0.359,0.486,0.463,0.255
NCI-H2085,0.262,0.222,0.268,0.174,1,0.973,0.881,0.665,0.762,1.04,0.908,1.03,0.983,0.952,0.747,0.707,0.768,0.755,0.741,0.205
BEN,0.36,0.373,0.343,0.299,0.608,0.753,0.722,0.533,0.656,0.633,0.622,0.694,0.68,0.618,1.05,1.25,1.02,1.19,1.18,0.217
LCLC-103H,0.474,0.498,0.43,0.425,0.792,0.846,0.791,0.721,0.85,0.843,0.752,0.816,0.836,0.674,0.802,0.811,0.796,0.86,0.783,0.518
NCI-H520,0.204,0.18,0.243,0.263,,,,,,,,,,,0.394,0.335,0.343,0.387,0.415,0.299
NCI-H1975,0.242,0.2,0.214,0.2,0.508,0.485,0.501,0.512,0.38,0.743,0.733,0.698,0.715,0.816,0.803,0.954,0.951,0.849,0.749,0.257
NCI-H1355,0.409,0.386,0.414,0.445,0.857,0.633,0.511,0.463,0.514,0.799,0.833,0.845,0.769,0.735,0.748,0.811,0.766,0.773,0.75,0.502

Cell Line,relative viability ([1]; first compound 3.162 µM),relative viability ([1]; first compound 10 µM),relative viability ([1]; first compound 31.62 µM),relative viability ([1]; first compound 100 µM),relative viability ([2]; first compound 1 µM),relative viability ([2]; first compound 3.162 µM),relative viability ([2]; first compound 10 µM),relative viability ([2]; first compound 31.62 µM),relative viability ([2]; first compound 100 µM),relative viability (Axitinib + AZD7762; first compound 0.005 µM),relative viability (Axitinib + AZD7762; first compound 0.01581 µM),relative viability (Axitinib + AZD7762; first compound 0.05 µM),relative viability (Axitinib + AZD7762; first compound 0.1581 µM),relative viability (Axitinib + AZD7762; first compound 0.5 µM),relative viability (Bemcentinib + Olaparib; first compound 0.04 µM),relative viability (Bemcentinib + Olaparib; first compound 0.1265 µM),relative viability (Bemcentinib + Olaparib; first compound 0.4 µM),relative viability (Bemcentinib + Olaparib; first compound 1.265 µM),relative viability (Bemcentinib + Olaparib; first compound 4 µM),relative viability ([1]; first compound 1 µM)
IA-LM,,,,,,,,,,,,,,,0.799,0.913,0.885,0.859,0.89,
H3255,0.344,0.308,0.32,0.274,0.716,0.95,0.801,0.683,0.637,0.841,0.734,0.891,0.915,0.879,0.533,0.589,0.537,0.599,0.491,0.29
NCI-H1915,0.295,,,0.276,0.682,0.694,0.647,,0.656,0.743,0.671,0.71,0.713,0.717,0.282,0.242,0.243,0.232,0.26,0.284
NCI-H2023,0.324,0.348,,0.275,,,,,,,,,,,0.461,0.487,0.463,0.511,0.501,0.432
NCI-H3122,0.901,0.732,,0.758,1.07,1.1,0.962,0.739,1.08,0.976,0.991,0.892,0.92,1.04,0.651,0.652,0.637,0.678,0.68,0.82
SK-MES-1,0.237,0.264,0.228,0.268,,,,,,,,,,,0.833,0.771,0.734,0.823,0.682,0.344
NCI-H1650,0.242,0.246,0.25,0.212,,,,,,,,,,,0.692,0.822,0.818,0.77,0.739,
NCI-H2170,0.467,0.512,0.39,0.404,0.899,0.91,0.733,0.613,0.783,1.13,0.958,0.948,0.792,0.87,0.563,0.661,0.567,0.583,0.589,0.68
NCI-H661,0.842,0.801,0.62,0.76,,,,,,,,,,,0.692,0.782,0.789,0.738,0.763,0.967
NCI-H1648,,,,,0.607,0.959,0.836,0.582,0.504,0.725,0.57,0.666,0.733,0.682,1.3,0.925,0.746,0.777,0.695,
HCC-44,,,,,0.91,0.977,0.985,0.869,0.888,1.07,1.04,1.01,0.992,1.03,1.04,1.04,0.981,0.974,1.02,
Calu-6,,,,,,,,,,,,,,,0.525,0.573,0.614,0.535,0.57,
NCI-H1563,0.478,0.369,0.442,0.44,,,,,,,,,,,,,,,,0.406
EBC-1,,,,,,,,,,,,,,,0.773,0.73,0.693,0.691,0.754,
NCI-H1703,,,,,,0.139,0.101,0.182,0.109,0.135,0.11,0.118,0.121,0.125,0.34,0.447,0.465,0.389,0.357,
NCI-H2228,0.471,0.421,0.425,0.363,,,,,,,,,,,0.379,0.616,0.593,0.707,0.749,0.516
SW 1573,0.513,0.602,0.36,0.577,,,,,,,,,,,0.504,0.437,0.558,0.465,0.438,0.616
SK-LU-1,0.193,0.181,,0.168,,,,,,,,,,,0.456,0.569,0.452,0.47,0.488,0.175
NCI-H1299,,,,,,,,,,,,,,,1.01,1.02,0.961,1,0.93,
NCI-H2009,0.293,0.301,0.186,0.244,,,,,,,,,,,0.651,0.778,0.734,0.698,0.697,0.316
UMC-11,0.656,0.514,0.436,0.638,,,,,,,,,,,0.366,0.678,0.322,0.352,0.384,0.465
A549,,,,,,,,,,,,,,,0.264,0.279,0.323,0.167,0.342,
